Source: US20130203635A1, “NUCLEIC ACID LIGATION METHOD” (priority 2012, published 2013)
“Also recorded” adds a separate entry of the source.

B1: C98A: P. horikoshii RtcB with Cys98→Ala98 substitution within predicted metal-binding site (protein, UniProt O59245 1-871, looked up, variant C98A)
chain: MVVPLKRIDKIRWEIPKFDKRMRVPGRVYADEVLLEKMKNDRTLEQATNVAMLPGIYKYSIVMPDGHQGYGFPIGGVAAFDVKEGVISPGGIGYDINALAPGTRVLTEHGYWLKIEEMPEKFKLQRLRVYNIEEGHNDFSKVVFVAEREVGSEEKAIRIVTESGKVIEGSEDHPVLTPEGYVYLRNVKEGDYILVYPFEGVPYEEKKGVILDESAFEGEDPQVVKFLRERNLIPLQWKDPKVGILARILGFALANGYISENDNLTFHGKEEVLREVRKDLEELGIEAIVAEEDKLKVTSREFAFLLEKLGMAHDSIPEWIIEGPLWIKRNFLAGLFGANGSIVEFKGDVPLPITLTHSRELLNDVSRILEGFKVRAKIKMGKNGSYQLVIEDEDSIRNFLGRINYEYDPEKKARGLIAYAYLKFKELMKGNLMTFEEFARDRGYEGGFVAEKVIEVKSVKPEYDKFYDIGVYHSAHNFIANGIVVHNCGVRLIRTNLTEKEVRPRIKQLVDTLFKNVPSGVGSQGRIKLHWTQIDDVLVDGAKWAVDNGYGWERDLERLEEGGRMEGADPEAVSQRAKQRGAPQLGSLGSGNHFLEVQVVDKIFDPEVAKAYGLFEGQVVVMVHTGSRGLGHQVASDYLRIMERAIRKYRIPWPDRELVSVPFQSEEGQRYFSAMKAAANFAWANRQMITHWVRESFQEVFKQDPEGDLGMDIVYDVAHNIGKVEEHEVDGKRVKVIVHRKGATRAFPPGHEAVPRLYRDVGQPVLIPGSMGTASYILAGTEGAMKETFGSTCHGAGRVLSRKAATRQYRGDRIRQELLNRGIYVRAASMRVVAEEAPGAYKNVDNVVKVVSEAGIAKLVARMRPIGVAKG
B2: C78A: E. coli RtcB with Cys78→Ala78 substitution within predicted metal-binding site (protein, UniProt P46850 1-408, looked up, variant C78A)
RNA-splicing ligase RtcB: MNYELLTTENAPVKMWTKGVPVEADARQQLINTAKMPFIFKHIAVMPDVHLGKGSTIGSVIPTKGAIIPAAVGVDIGAGMNALRTALTAEDLPENLAELRQAIETAVPHGRTTGRCKRDKGAWENPPVNVDAKWAELEAGYQWLTQKYPRFLNTNNYKHLGTLGTGNHFIEICLDESDQVWIMLHSGSRGIGNAIGTYFIDLAQKEMQETLETLPSRDLAYFMEGTEYFDDYLKAVAWAQLFASLNRDAMMENVVTALQSITQKTVRQPQTLAMEEINCHHNYVQKEQHFGEEIYVTRKGAVSARAGQYGIIPGSMGAKSFIVRGLGNEESFCSCSHGAGRVMSRTKAKKLFSVEDQIRATAHVECRKDAEVIDEIPMAYKDIDAVMAAQSDLVEVIYTLRQVVCVKG
B3: Archease: Pyrococcus horikoshii Archease (SEQ ID NO:9; UniProt O59205), N-terminal hexahistidine tag (protein, listed as Pyrococcus horikoshii)
chain: MKKWEHYEHTADIGIRGYGDSLEEAFEAVAIALFDVMVNVNKVEKKEVREIEVEAEDLEALLYSFLEELLVIHDIEGLVFRDFEVKIERVNGKYRLRAKAYGEKLDLKKHEPKEEVKAITYHDMKIERLPNGKWMAQLVPDI
modifications: N-terminal His6 tag

Key:
[1] = tested on: Escherichia coli RtcB ligase; test: E. coli RtcB RNA ligation assay (3′-P and 5′-OH termini, urea-polyacrylamide gel); assay type: biochemical; details: for use as cofactor in ligation of 3′-P and 5′-OH RNA termini: in place of GTP, tRNA anticodon stem-loop mimic substrate, with Mn2+ (FIG. 1B, 1C)
Excerpt: FIG. 1. […] (A) RNA ligation substrate that mimics a broken tRNA anti-codon. FAM label allows visualization in a urea-polyacrylamide gel. […] (B) Cofactor- and metal-dependence of ligation. Reactions contain manganese, except in the “—Mn^2+” lane. The lane labeled “C78A” is a ligation reaction performed with RtcB that has a C78A substitution within the predicted metal binding site. (C) Ligation assays using GTP analogues as cofactors. […] (E) RNA termini specificity of RtcB. Modifications to the ligatable ends of the tRNA mimic substrate were made as indicated and tested in ligation reactions.
To assay for ligation, we initially used two single-stranded RNA (ssRNA) oligos that were each 10 nucleotides in length. The 5′ RNA fragment was labeled with 6-carboxyfluorescein (FAM) at its 5′ end and phosphorylated at its 3′ end. The 3′ RNA fragment had hydroxyl groups at each end. We intended to convert the 3′-P into a 2′,3′-cyclic phosphate by incubation with RtcA and ATP, so as to produce a suitable substrate for RtcB.
These reactions were performed with high concentrations of GTP analogues to ensure saturation of RtcB.
We investigated the RNA termini structure requirements for ligation by modifying the ends of our tRNA mimic substrate. First, all four combinations of either a phosphate or hydroxyl group at each termini were sampled while maintaining a 2′-OH on the 5′ side of the ligation junction. […] Next, the importance of the terminal ribose 2′-OH for ligation was probed by replacing this hydroxyl group with either hydrogen (2′-H) or fluorine (2′-F).

[2] = tested on: P. horikoshii RtcB; test: P. horikoshii RtcB RNA ligation assay; assay type: biochemical, Pyrococcus horikoshii; details: for use as cofactor in RNA ligation with Archease: Archease 0.25 μM, NTP 100 μM, RtcB 5 μM (FIG. 10B, 11B)
Excerpt: FIG. 2. P. horikoshii RtcB catalyzed ligation of 3′-P and 5′-OH RNA termini. P. horikoshii RtcB requires Mn^2+ and GTP for ligation. […] The lane labeled “2′-deoxy” is a ligation reaction using the tRNA mimic substrate but with a 3′-P/2′-H termini on its 5′ fragment. The lane labeled “C98A” is a ligation reaction with RtcB that has a C98A substitution within the predicted metal-binding site.
RtcB from the archaeal domain of life likewise catalyzes the GTP-dependent ligation of 3′-P and 5′-OH RNA termini. The crystal structure of RtcB from a hyperthermophilic archaeon, Pyrococcus horikoshii, was determined as part of a structural genomics project (21). […] The P. horikoshii homologue has 29% amino-acid sequence identity to E. coli RtcB, and 49% identity to the human ligase (HSPC117). To investigate if RtcB from archaea catalyzes the GTP-dependent ligation of 3′-P and 5′-OH RNA termini, we synthesized a P. horikoshii rtcB gene and produced soluble enzyme in E. coli. […] The P. horikoshii ligase also required a 2′-OH on the terminal nucleotide of the 5′ RNA fragment.
RNA Ligation Assay. Ligation assays with single-stranded RNA as the substrate used two 10-nt oligonucleotides that were synthesized by Integrated DNA Technologies (15). […] The 3′ RNA fragment had hydroxyl groups on each end. The sequence of the 5′ fragment was FAM-5′-AAAUAACAAA-3′-P (SEQ ID NO:6) and the sequence of the 3′ RNA fragment was 5′-AAAUAACAAA-3′ (SEQ ID NO:6). Ligation reactions were performed in 10-μL solutions consisting of 50 mM Bis-Tris buffer, pH 7.0, containing NaCl (300 mM), […] (0.25 mM), GTP (100 μM), each RNA fragment (1 μM), and RtcB (10 μM). Reaction mixtures were incubated at 70° C. for 1 h prior to the addition of water (40 μL) and RNA-loading buffer (50 μL). Reaction mixtures were subjected to electrophoresis and visualized as previously described in the previous examples.
The ability of Archease to activate P. horikoshii RtcB was tested in reactions using ssRNA substrates. Ligation reactions included a 10-nt 5′ RNA fragment and a 10-nt 3′ RNA fragment. […] The 3′ RNA fragment had hydroxyl groups on each end. The sequence of the 5′ fragment was FAM-5′-AAAUAACAAA-3′-P (SEQ ID NO:6) and the sequence of the 3′ RNA fragment was 5′-AAAUAACAAA-3′ (SEQ ID NO:6). Ligation reactions were performed in 50-μL solutions consisting of 50 mM Tris-HCl buffer, pH 7.4, containing NaCl (300 mM), MnCl2 (0.25 mM), GTP (100 μM), RNA fragments (100 pmol of each), and P. horikoshii RtcB (5 μM).
Ligation reaction mixtures were set up as described above, and each was divided into two tubes. No Archease was added to one set of reaction mixtures (FIG. 10A), and Archease was added to a concentration of 0.25 μM to the other set (FIG. 10B). […] Archease had no effect on ligation reactions that used 2′-F RNA.
We tested the ability of Archease to enable RtcB to use cofactors other than GTP or dGTP. Ligation reaction mixtures with RtcB were set up as described above, and each was divided into two tubes. No Archease was added to one set of reaction mixtures (FIG. 11A), and Archease was added to a concentration of 0.25 μM to the other set (FIG. 11B). The various NTPs were included at a concentration of 100 μM.

| Molecule | use as cofactor in ligation of 3′-P and 5′-OH RNA termini [1] | other results |
| --- | --- | --- |
| Nc1ccn([C@@H]2O[C@H](COP(=O)(O)OP(=O)(O)OP(=O)(O)O)[C@@H](O)[C@H]2O)c(=O)n1 [CTP] | unable to substitute for GTP | use as cofactor in RNA ligation with Archease [2]: not |
| Nc1nc2c(ncn2[C@@H]2O[C@H](COP(=O)(O)OP(=O)(O)O)[C@@H](O)[C@H]2O)c(=O)[nH]1 [GDP] | allowed for low levels of ligation | – |
| Nc1nc2c(ncn2[C@@H]2O[C@H](COP(=O)(O)O)[C@@H](O)[C@H]2O)c(=O)[nH]1 [GMP] | allowed for low levels of ligation | – |
| Nc1nc2c(ncn2[C@@H]2O[C@H](COP(=O)(O)OP(=O)(O)OP(O)(O)=S)[C@@H](O)[C@H]2O)c(=O)[nH]1 [GTPγS] | enabled ligation, albeit at lower efficiency than did GTP | – |
| Nc1nc2c(ncn2C2OC(COP(=O)(O)CP(=O)(O)OP(=O)(O)O)C(O)C2O)c(=O)[nH]1 (stereo not drawn) [GpCpp, guanosine 5′-(α,β-methyleno)-triphosphate] | unreactive; also recorded: did not enable the ligation to proceed | – |
| Nc1nc2c(ncn2[C@@H]2O[C@H](COP(=O)(O)OP(=O)(O)CP(=O)(O)O)[C@@H](O)[C@H]2O)c(=O)[nH]1 [GppCp] | enabled ligation, albeit at lower efficiency than did GTP | – |
| Nc1nc2c(ncn2[C@@H]2O[C@H](COP(=O)(O)OP(=O)(O)NP(=O)(O)O)[C@@H](O)[C@H]2O)c(=O)[nH]1 [GppNHp] | enabled ligation, albeit at lower efficiency than did GTP | – |
| NC(=O)c1ccc[n+]([C@@H]2O[C@H](COP(=O)([O-])OP(=O)(O)OC[C@H]3O[C@@H](n4cnc5c(N)ncnc54)[C@H](O)[C@@H]3O)[C@@H](O)[C@H]2O)c1 [NAD^+] | unable to substitute for GTP | – |
| O=c1ccn([C@@H]2O[C@H](COP(=O)(O)OP(=O)(O)OP(=O)(O)O)[C@@H](O)[C@H]2O)c(=O)[nH]1 [UTP] | unable to substitute for GTP | use as cofactor in RNA ligation with Archease [2]: not |
| Nc1nc2c(ncn2[C@H]2C[C@H](O)[C@@H](COP(=O)(O)OP(=O)(O)OP(=O)(O)O)O2)c(=O)[nH]1 [dGTP, deoxyguanosine-5′-triphosphate] | – | use as cofactor in RNA ligation with Archease [2]: enables RtcB to use dGTP efficiently as a cofactor; use as cofactor in RNA ligation ([2]; RtcB alone, no Archease, ssRNA 10-nt substrates): ligation activity is reduced substantially; also recorded: at a rate that is much lower than that with GTP; also recorded: ligation efficiency is reduced greatly |
| B1 | – | ligase activity of RtcB variant ([2]; alanine substitution): abolishes ligase activity |
| B2 | – | ligase activity of RtcB variant ([1]; substitution within predicted metal-binding site): abolished ligase activity |
| B3 | – | effect of Archease on catalysis of RNA ligation by RtcB ([2]; Archease at concentrations lower than RtcB or RNA, GTP 100 μM (FIG. 9)): significantly enhances the catalytic activity of RtcB |
